Results reported in US20260085262A1, “ACQ FLUORESCENCE PROBE COMPOSITION, CMC DETERMINATION METHOD, STAIN CLEANING CONCENTRATION DETERMINATION METHOD, DETERGENT DISPENSING CONTROL METHOD, AND DETERGENT DISPENSING CONTROL SYSTEM” (GUANGZHOU BLUEMOON INDUSTRIAL CO., LTD., priority 2024, published 2026).
Where two headings read alike, the source gives them in different places.

Key:
[1] = solvent, cited from earlier work
[2] = document value; cited from earlier work
[3] = Hansen solubility parameters (HSP), δ difference and HSP distance Ra
[4] = HSP distance between solvent and pyrene
[5] = HSP distance between solvent and rhodamine B
[6] = total δ of solvent minus total δ of pyrene
[7] = total δ of solvent minus total δ of rhodamine B
[8] = HSP distance between solvent and curcumin (CUR)
[9] = total δ of solvent minus total δ of curcumin (CUR)

Row | Compound | Flash point [1] [°C] | Viscosity [1] [mPa · s] | Viscosity ([1]; listed as 1,3-butanediol (1,3-BDO)) [mPa · s] | Volatility/Boiling point [1] [°C] | Dispersion δD [2] | Hydrogen bonding δH [2] | Polarity δH [2] | Total δ [2] | Ra [3, 4] | Ra [3, 5] | δ difference [3, 6] | δ difference [3, 7] | Ra [3, 8] | δ difference [3, 9]
1 | CC(O)CCO (stereo not drawn) [1,3-butanediol] | 121 | 130.3 | 130 |  |  |  |  |  |  |  |  |  |  | 
2 | CC(C)=O [Acetone] | −17.8 | 0.316 |  | 56 | 15.5 (MPa)^1/2 | 7 (MPa)^1/2 | 10.4 (MPa)^1/2 | 19.935 (MPa)^1/2 | 16.806 (MPa)^1/2 | 13.727 (MPa)^1/2 | −2.974 (MPa)^1/2 | −10.518 (MPa)^1/2 |  | 
3 | CC#N [Acetonitrile] | 5.6 | 0.375 |  | 82 | 15.3 (MPa)^1/2 | 6.1 (MPa)^1/2 | 18 (MPa)^1/2 | 24.399 (MPa)^1/2 |  |  |  |  |  | 
4 | CCCCOC(=O)c1ccccc1C(=O)OCCCC [Dibutyl phthalate] | 171 | 9.72 |  | 339 | 17.8 (MPa)^1/2 | 4.1 (MPa)^1/2 | 8.6 (MPa)^1/2 | 20.189 (MPa)^1/2 |  |  |  |  |  | 
5 | C[S+](C)[O-] [Dimethyl sulfoxide] |  |  |  |  | 18.4 (MPa)^1/2 | 10.2 (MPa)^1/2 | 16.4 (MPa)^1/2 | 26.675 (MPa)^1/2 |  |  |  |  | 13.383 (MPa)^1/2 | 4.096 (MPa)^1/2
6 | CN(C)C=O [Dimethylformamide (DMF), Dimethylformamide] | 58 | 0.802 |  |  | 17.4 (MPa)^1/2 | 11.3 (MPa)^1/2 | 13.7 (MPa)^1/2 | 24.862 (MPa)^1/2 |  |  |  |  |  | 
7 | CCOCC [Ether] |  |  |  |  | 14.5 (MPa)^1/2 | 4.6 (MPa)^1/2 | 2.9 (MPa)^1/2 | 15.486 (MPa)^1/2 | 16.064 (MPa)^1/2 | 20.633 (MPa)^1/2 | −7.423 (MPa)^1/2 | −14.967 (MPa)^1/2 |  | 
8 | CCOC(=O)CO [Ethyl glycolate] | 62 |  |  | 158 |  |  |  |  |  |  |  |  | 14.383 (MPa)^1/2 | 2.225 (MPa)^1/2
9 | OCCOc1ccccc1 [Ethylene glycol monophenyl ether] | 121 | 30.5 |  | 245 | 17.8 (MPa)^1/2 | 12.2 (MPa)^1/2 | 5.9 (MPa)^1/2 | 22.372 (MPa)^1/2 |  |  |  |  | 2.858 (MPa)^1/2 | −0.207 (MPa)^1/2
10 | OCC(O)CO [Glycerol] |  |  |  |  | 17.4 (MPa)^1/2 | 29.3 (MPa)^1/2 | 12.1 (MPa)^1/2 | 36.162 (MPa)^1/2 |  |  |  |  | 17.614 (MPa)^1/2 | 13.583 (MPa)^1/2
11 | CCN1CCCC1=O [N-ethylpyrrolidone (NEP), N-ethylpyrrolidone] | 76.1 |  |  | 218 | 18 (MPa)^1/2 | 7 (MPa)^1/2 | 12 (MPa)^1/2 | 22.738 (MPa)^1/2 |  |  |  |  |  | 0.159 (MPa)^1/2
12 | Cc1ccccc1 [Toluene] | 4.4 | 0.587 |  |  | 18 (MPa)^1/2 | 2 (MPa)^1/2 | 1.4 (MPa)^1/2 |  |  |  |  |  |  | 
13 | Water |  | 1.002 |  |  | 15.5 (MPa)^1/2 | 42.3 (MPa)^1/2 | 16 (MPa)^1/2 | 47.807 (MPa)^1/2 |  |  |  |  |  | 
